Assay results: PubChem BioAssay (NCI)
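Protocol summary: plate cells (96-well), add compound at 5 concentrations, incubate 48 h, interpolate endpoints linearly. At the TGI there is no net growth.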

Key:
Assay in all cases: NCI-60 cell line screen, 48 h
A498 renal = system: A498 renal
NCI-H226 lung = system: NCI-H226 lung
SR leukemia = system: SR leukemia
NCI-H23 lung = system: NCI-H23 lung
MALME-3M melanoma = system: MALME-3M melanoma
DU-145 prostate = system: DU-145 prostate
MDA-MB-435 = system: MDA-MB-435
EKVX NSCLC = system: EKVX NSCLC
OVCAR-5 ovarian = system: OVCAR-5 ovarian
OVCAR-3 ovarian = system: OVCAR-3 ovarian
RPMI-8226 leukemia = system: RPMI-8226 leukemia
TK-10 renal = system: TK-10 renal
NCI/ADR-RES ovarian = system: NCI/ADR-RES ovarian
SF-295 CNS = system: SF-295 CNS
U251 CNS = system: U251 CNS
OVCAR-4 ovarian = system: OVCAR-4 ovarian
OVCAR-8 ovarian = system: OVCAR-8 ovarian
T-47D breast = system: T-47D breast
786-0 renal = system: 786-0 renal
HT29 colon = system: HT29 colon
COLO 205 colon = system: COLO 205 colon
MDA-MB-231 breast = system: MDA-MB-231 breast
SK-MEL-2 melanoma = system: SK-MEL-2 melanoma
LOX IMVI melanoma = system: LOX IMVI melanoma
SK-MEL-28 melanoma = system: SK-MEL-28 melanoma
SK-MEL-5 melanoma = system: SK-MEL-5 melanoma
HOP-92 NSCLC = system: HOP-92 NSCLC
A549 NSCLC = system: A549 NSCLC
HS 578T breast = system: HS 578T breast
UACC-257 melanoma = system: UACC-257 melanoma
SF-539 CNS = system: SF-539 CNS
IGROV1 ovarian = system: IGROV1 ovarian
HCT-116 colon = system: HCT-116 colon
UACC-62 melanoma = system: UACC-62 melanoma
HOP-62 NSCLC = system: HOP-62 NSCLC
SNB-19 CNS = system: SNB-19 CNS
CAKI-1 renal = system: CAKI-1 renal
HCC-2998 colon = system: HCC-2998 colon
BT-549 breast = system: BT-549 breast
M14 melanoma = system: M14 melanoma
KM12 colon = system: KM12 colon
RXF 393 renal = system: RXF 393 renal
NCI-H460 lung = system: NCI-H460 lung
MOLT-4 leukemia = system: MOLT-4 leukemia
ACHN renal = system: ACHN renal
PC-3 prostate = system: PC-3 prostate
NCI-H522 lung = system: NCI-H522 lung
SN12C renal = system: SN12C renal
CCRF-CEM leukemia = system: CCRF-CEM leukemia
SF-268 CNS = system: SF-268 CNS
SW-620 colon = system: SW-620 colon
UO-31 renal = system: UO-31 renal
HCT-15 colon = system: HCT-15 colon
K-562 leukemia = system: K-562 leukemia
HL-60(TB) leukemia = system: HL-60(TB) leukemia
MCF7 breast = system: MCF7 breast

CCOC(=O)c1c(N2CCN(C)CC2)[nH]c(=O)c(C(c2c(Cl)cccc2Cl)c2c(O)c(C(=O)OCC)c(N3CCN(C)CC3)[nH]c2=O)c1O
TGI (A498 renal): 39.8 µM
TGI (NCI-H226 lung): 52.6 µM
TGI (SR leukemia): 67.6 µM
TGI (NCI-H23 lung): > 100 µM
TGI (MALME-3M melanoma): 41.5 µM
TGI (DU-145 prostate): 38.3 µM
TGI (MDA-MB-435): 57.9 µM
TGI (EKVX NSCLC): 34.2 µM
TGI (OVCAR-5 ovarian): > 100 µM
TGI (OVCAR-3 ovarian): 87.1 µM
TGI (RPMI-8226 leukemia): > 100 µM
TGI (TK-10 renal): 55.4 µM
TGI (NCI/ADR-RES ovarian): > 100 µM
TGI (SF-295 CNS): 63.3 µM
TGI (U251 CNS): 50 µM
TGI (OVCAR-4 ovarian): 38.4 µM
TGI (OVCAR-8 ovarian): 45 µM
TGI (T-47D breast): 45.8 µM
TGI (786-0 renal): 87 µM
TGI (HT29 colon): 39.1 µM
TGI (COLO 205 colon): > 100 µM
TGI (MDA-MB-231 breast): 55.1 µM
TGI (SK-MEL-2 melanoma): 53.2 µM
TGI (LOX IMVI melanoma): > 100 µM
TGI (SK-MEL-28 melanoma): 34.1 µM
TGI (SK-MEL-5 melanoma): 40.1 µM
TGI (HOP-92 NSCLC): 37.6 µM
TGI (A549 NSCLC): 71.4 µM
TGI (HS 578T breast): 75 µM
TGI (UACC-257 melanoma): 38.9 µM
TGI (SF-539 CNS): 39.5 µM
TGI (IGROV1 ovarian): 39.2 µM
TGI (HCT-116 colon): > 100 µM
TGI (UACC-62 melanoma): 39.5 µM
TGI (HOP-62 NSCLC): > 100 µM
TGI (SNB-19 CNS): 37.2 µM
TGI (CAKI-1 renal): 52.7 µM
TGI (HCC-2998 colon): 78.1 µM
TGI (BT-549 breast): 40.8 µM
TGI (M14 melanoma): 68.9 µM
TGI (KM12 colon): 49.7 µM
TGI (RXF 393 renal): 38.8 µM
TGI (NCI-H460 lung): 77 µM
TGI (MOLT-4 leukemia): 62.2 µM
TGI (ACHN renal): 42.8 µM
TGI (PC-3 prostate): 47.5 µM
TGI (NCI-H522 lung): 42 µM
TGI (SN12C renal): 48 µM
TGI (CCRF-CEM leukemia): > 100 µM
TGI (SF-268 CNS): 56.5 µM
TGI (SW-620 colon): 68.2 µM
TGI (UO-31 renal): 39.1 µM
TGI (HCT-15 colon): 97.7 µM
TGI (K-562 leukemia): 86.8 µM
TGI (HL-60(TB) leukemia): 58.2 µM
TGI (MCF7 breast): > 100 µM
